The source made the active and inactive calls. The rule behind the calls is not given here.
target: T1, Heat shock protein HSP 90-beta (Homo sapiens, UniProt P08238); test: Inhibition of human Hsp90 chaperone activity assessed as citrate synthase thermal-induced aggregation at 0.3 uM by fluorimetric analysis; conditions: not given
T1 sequence (P08238 whole entry): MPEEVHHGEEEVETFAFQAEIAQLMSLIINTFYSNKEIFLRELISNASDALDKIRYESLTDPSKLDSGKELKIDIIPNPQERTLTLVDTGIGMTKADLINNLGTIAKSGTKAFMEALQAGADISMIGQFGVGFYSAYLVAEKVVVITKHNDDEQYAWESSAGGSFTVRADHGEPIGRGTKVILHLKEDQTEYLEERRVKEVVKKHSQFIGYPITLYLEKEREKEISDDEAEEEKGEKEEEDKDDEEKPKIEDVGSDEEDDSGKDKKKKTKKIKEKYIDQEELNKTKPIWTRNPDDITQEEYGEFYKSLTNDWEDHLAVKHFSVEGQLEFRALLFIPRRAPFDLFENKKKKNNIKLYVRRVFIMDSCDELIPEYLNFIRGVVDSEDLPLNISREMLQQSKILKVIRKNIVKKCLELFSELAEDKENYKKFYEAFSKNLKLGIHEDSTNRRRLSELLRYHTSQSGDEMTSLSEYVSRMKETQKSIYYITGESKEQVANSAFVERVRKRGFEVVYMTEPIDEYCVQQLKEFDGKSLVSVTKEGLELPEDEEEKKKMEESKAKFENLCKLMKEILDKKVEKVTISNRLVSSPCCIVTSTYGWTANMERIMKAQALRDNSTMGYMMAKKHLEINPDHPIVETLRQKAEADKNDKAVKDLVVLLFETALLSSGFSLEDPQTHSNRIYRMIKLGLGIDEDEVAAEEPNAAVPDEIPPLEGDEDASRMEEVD

inhibition	SMILES
Active	c1ccc2cc(Cn3cc(CCCCc4cn(Cc5ccc6ccccc6c5)nn4)nn3)ccc2c1
Active	O=C1c2ccccc2C(=O)N1CCCn1cc(COCc2cn(CCCN3C(=O)c4ccccc4C3=O)nn2)nn1
Active	O=C1c2ccccc2C(=O)c2cc(Cn3cc(COCc4cn(Cc5ccc6c(c5)C(=O)c5ccccc5C6=O)nn4)nn3)ccc21
Active	c1ccc2cc(Cn3cc(CN(Cc4cn(Cc5ccc6ccccc6c5)nn4)Cc4cn(Cc5ccc6ccccc6c5)nn4)nn3)ccc2c1
Active	O=C(c1ccccc1)c1ccc(Cn2cc(COCc3cn(Cc4ccc(C(=O)c5ccccc5)cc4)nn3)nn2)cc1

target: T1, Heat shock protein HSP 90-beta; test: Inhibition of human Hsp90 ATPase activity assessed as inhibition of ATP hydrolysis after 60 mins by fluorimetric analysis; conditions: not given

IC50 [nM]	inhibition	SMILES
52000	Dose-dependent effect	c1ccc2cc(Cn3cc(CCCCc4cn(Cc5ccc6ccccc6c5)nn4)nn3)ccc2c1
7000	Dose-dependent effect	O=C1c2ccccc2C(=O)N1CCCn1cc(COCc2cn(CCCN3C(=O)c4ccccc4C3=O)nn2)nn1
7000	Dose-dependent effect	O=C1c2ccccc2C(=O)c2cc(Cn3cc(COCc4cn(Cc5ccc6c(c5)C(=O)c5ccccc5C6=O)nn4)nn3)ccc21
16000	Dose-dependent effect	c1ccc2cc(Cn3cc(CN(Cc4cn(Cc5ccc6ccccc6c5)nn4)Cc4cn(Cc5ccc6ccccc6c5)nn4)nn3)ccc2c1
7000	Dose-dependent effect	O=C(c1ccccc1)c1ccc(Cn2cc(COCc3cn(Cc4ccc(C(=O)c5ccccc5)cc4)nn3)nn2)cc1

target: T1, Heat shock protein HSP 90-beta; test: Binding affinity to human Hsp90 by surface plasmon resonance analysis; conditions: not given

Kd	SMILES
Not Active	c1ccc(-c2ccc(Cn3cc(CCCCc4cn(Cc5ccc(-c6ccccc6)cc5)nn4)nn3)cc2)cc1
Not Active	O=C(c1ccccc1)c1ccc(Cn2cc(-c3ccc(-c4cn(Cc5ccc(C(=O)c6ccccc6)cc5)nn4)cc3)nn2)cc1
Not Active	c1ccc2cc(Cn3cc(COCc4cn(Cc5ccc6ccccc6c5)nn4)nn3)ccc2c1
Not Active	O=C(c1ccccc1)c1ccc(Cn2cc(CCCCc3cn(Cc4ccc(C(=O)c5ccccc5)cc4)nn3)nn2)cc1

The next lines start with the compound.

SMILES	Kd
O=C1c2ccccc2C(=O)N1CCCn1cc(-c2ccc(-c3cn(CCCN4C(=O)c5ccccc5C4=O)nn3)cc2)nn1	Not Active
c1ccc2c(Cn3cc(-c4ccc(-c5cn(Cc6cccc7ccccc67)nn5)cc4)nn3)cccc2c1	Not Active
O=C1c2ccccc2C(=O)N1CCCn1cc(CCCCc2cn(CCCN3C(=O)c4ccccc4C3=O)nn2)nn1	Not Active
c1ccc(-c2ccc(Cn3cc(-c4ccc(-c5cn(Cc6ccc(-c7ccccc7)cc6)nn5)cc4)nn3)cc2)cc1	Not Active
c1ccc2cc(Cn3cc(-c4ccc(-c5cn(Cc6ccc7ccccc7c6)nn5)cc4)nn3)ccc2c1	Not Active
O=C1c2ccccc2C(=O)c2cc(Cn3cc(-c4ccc(-c5cn(Cc6ccc7c(c6)C(=O)c6ccccc6C7=O)nn5)cc4)nn3)ccc21	Not Active
O=C1c2ccccc2C(=O)c2cc(Cn3cc(CCCCc4cn(Cc5ccc6c(c5)C(=O)c5ccccc5C6=O)nn4)nn3)ccc21	Not Active

same assay, conditions: read-out: Kd

Kd [nM]	SMILES
10.3	c1ccc2c(Cn3cc(COCc4cn(Cc5cccc6ccccc56)nn4)nn3)cccc2c1
151	O=C(c1ccccc1)c1ccc(Cn2cc(CN(Cc3cn(Cc4ccc(C(=O)c5ccccc5)cc4)nn3)Cc3cn(Cc4ccc(C(=O)c5ccccc5)cc4)nn3)nn2)cc1
237	c1ccc(-c2ccc(Cn3cc(COCc4cn(Cc5ccc(-c6ccccc6)cc5)nn4)nn3)cc2)cc1
3.6	O=C(c1ccccc1)c1ccc(Cn2cc(COCc3cn(Cc4ccc(C(=O)c5ccccc5)cc4)nn3)nn2)cc1

More lines, now with the values behind:

SMILES	Kd [nM]
c1ccc2cc(Cn3cc(CCCCc4cn(Cc5ccc6ccccc6c5)nn4)nn3)ccc2c1	84
O=C1c2ccccc2C(=O)N1CCCn1cc(COCc2cn(CCCN3C(=O)c4ccccc4C3=O)nn2)nn1	3.5
O=C1c2ccccc2C(=O)c2cc(Cn3cc(COCc4cn(Cc5ccc6c(c5)C(=O)c5ccccc5C6=O)nn4)nn3)ccc21	2.8
c1ccc2c(Cn3cc(CCCCc4cn(Cc5cccc6ccccc56)nn4)nn3)cccc2c1	191
c1ccc2cc(Cn3cc(CN(Cc4cn(Cc5ccc6ccccc6c5)nn4)Cc4cn(Cc5ccc6ccccc6c5)nn4)nn3)ccc2c1	55
O=C1c2ccccc2C(=O)c2cc(Cn3cc(CN(Cc4cn(Cc5ccc6c(c5)C(=O)c5ccccc5C6=O)nn4)Cc4cn(Cc5ccc6c(c5)C(=O)c5ccccc5C6=O)nn4)nn3)ccc21	107
c1ccc2c(Cn3cc(CN(Cc4cn(Cc5cccc6ccccc56)nn4)Cc4cn(Cc5cccc6ccccc56)nn4)nn3)cccc2c1	201
c1ccc(-c2ccc(Cn3cc(CN(Cc4cn(Cc5ccc(-c6ccccc6)cc5)nn4)Cc4cn(Cc5ccc(-c6ccccc6)cc5)nn4)nn3)cc2)cc1	72
O=C1c2ccccc2C(=O)N1CCCn1cc(CN(Cc2cn(CCCN3C(=O)c4ccccc4C3=O)nn2)Cc2cn(CCCN3C(=O)c4ccccc4C3=O)nn2)nn1	89

— ChEMBL document CHEMBL2412974, “Dimeric and trimeric triazole based molecules as a new class of Hsp90 molecular chaperone inhibitors” (Eur J Med Chem, 2013)
